Reference: PMC3340893, “IspE Inhibitors Identified by a Combination of In Silico and In Vitro High-Throughput Screening” (PLoS ONE, 2012)
≈ marks a conversion by molar mass, not a printed value. Read-outs that look alike come from different tables or passages of the source.

Tests used:
EcIspE [1] = biological target: T1, EcIspE (Escherichia coli, UniProt P62615); experiment: IspE inhibition assay (Promega Kinase-Glo Plus), IC50 determination; assay type: biochemical; conditions: for Ligand efficiency: from IC50 converted to Ki assuming competitive inhibition of the cytidine binding site, KM 150 µM, [CDP-ME] 500 µM, T = 298 K; for EcIspE inhibition at 100 µM: typical protein kinase inhibitors evaluated as possible standard inhibitor; for fold weaker IC50 / loss in potency compared to the screening hit: relative to parent screening hit (4, 7 or 8)
T1 construct: made in house
Experimental: Inhibition of EcIspE was measured using the Promega Kinase-Glo®-Plus kit. This kit determines the remaining ATP concentration after the kinase reaction took place by converting luciferin to oxyluciferin via an ATP-dependent luciferase. Oxyluciferin is chemoluminescent and can be detected using a plate reader.
The assay was performed under the following conditions: 90 µM ATP, 500 µM CDP-ME, 200 nM EcIspE in 100 mM Tris-HCl, pH 8.5, 20 mM MgCl2, 2% DMSO, 0.01% (v/v) Triton-X 100. The reaction was carried out in 384-well plates with 25 µl reaction volumes, incubated at 25°C for 180 min, and stopped with 25 µl Kinase-Glo® Plus reagent (Promega, Madison, USA). The chemoluminescence signal was developed for 45 min at room temperature and read out in a plate reader (TopCount, PerkinElmer, USA). To monitor assay performance and to control for inhibition of the luciferase of the Kinase-Glo® Plus kit wells containing either the reaction mixture plus compound 3 or 4 or all ingredients except for CDP-ME were also prepared. Further, as quality control for each assay plate, wells containing the kinase reaction without an inhibitor, and wells containing only ATP in assay buffer were prepared. The signals of these wells were averaged (AVHIGH, AVLOW) and used to calculate the signal to noise ratio (AVHIGH/AVLOW) and Z′ (1− [drawing 1]; SD: standard deviation). The best performance was obtained with an ATP concentration of 90 µM and a CDP-ME concentration of 500 µM (Signal to noise ratio = 3.3, Z′ = 0.69 in assay development). In this setup the ATP and CDP-ME concentrations are ∼0.2×K M and ∼3×K M, respectively. Consequently, the assay can be used to detect ligands binding to both the substrate and co-factor binding sites.
(§1) Compounds were dissolved in DMSO at concentrations between 10 and 200 mM (depending on maximal solubility) and added to the reaction mixture with a final concentration of 2% DMSO (v/v). For compounds where IspE inhibition was indicated, a 1∶3 dilution series in DMSO was prepared and tested in the same endpoint assay. IC50 values were derived by non-linear regression with a 4-parameter fit to the following equation in GraFit (Erithacus Software Ltd., Surrey, UK). [drawing 2] where y: measured signal of assay: ymax: saturated signal: [I]: inhibitor concentration: slope: Hill slope; ymin: background signal of assay.
As the assay was performed at relatively high substrate concentrations (∼3×K M) for ligand efficiency calculations, the measured IC50 values were first converted to K i values.
Ligand efficiencies were calculated using the formula: [drawing 4] where T = 298 K and R = the ideal gas constant.

[2] = Solubility limit in the assay; assay type: physicochemical; conditions: EcIspE assay reaction mixture, aqueous buffer, kinetic from dmso stock; highest concentration tested in the EcIspE assay
Description: In the modelled binding mode of ligand 4 the pyrrolopyridine scaffold is sandwiched between Tyr24 and Tyr175 and potentially interacts with His25 via three hydrogen bonds (Figure 12a). In addition, the charged amino group in the tetrahydropyrimidinium ring may form a salt bridge interaction with Asp130. Commercially available analogues of this compound were selected to probe possible interactions with Asp130, His25 and the backbone of Lys145 (Figure 13, Table 4). […] Accordingly, these compounds can no longer form a salt bridge with Asp130. In the predicted binding mode of 12 a neutral hydrogen-bond via the thio-urea group is formed with Asp130 instead while 13 is assumed to interact with Lys9 NZ and Thr171 OG1 (Figure 12c and d). […] In order to accommodate 14 in the binding site in a similar binding mode as 4, structural rearrangements are required to avoid a steric clash of the cyclo-propyl moiety with the backbone carbonyl group of Lys145 (Figure 2). An alternative binding mode for this compound is also possible in which the core is flipped by 180° compared to 4 but still forms hydrogen bonds with His25 (Figure 12b). In this orientation, both substituents are solvent exposed.
as §1

EcIspE [3] = biological target: T1, EcIspE; design: method as in PMID 18033714, PMID 18633530, PMID 18422643, PMID 17361977, PMID 21903402; conditions: substrate-like IspE inhibitors, Figure 4; cited from earlier work
[4] = average of three independent measurements, SD in brackets, 90 µM ATP, 500 µM CDP-ME, 200 nM EcIspE, pH 8.5, n.i. = no inhibition at solubility limit measured, read-out: IC50 [M] (SD)

T1 sequence (P62615 whole entry): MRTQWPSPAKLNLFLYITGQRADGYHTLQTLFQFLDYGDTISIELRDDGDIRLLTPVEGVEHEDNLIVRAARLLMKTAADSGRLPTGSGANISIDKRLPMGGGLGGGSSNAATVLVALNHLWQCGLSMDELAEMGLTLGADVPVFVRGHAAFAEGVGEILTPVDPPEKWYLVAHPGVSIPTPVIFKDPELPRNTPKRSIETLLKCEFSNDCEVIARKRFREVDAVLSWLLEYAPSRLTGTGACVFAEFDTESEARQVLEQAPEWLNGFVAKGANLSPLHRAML

For c1csc(NC2CCCCC2)n1 [Compound 9], the IC50 (EcIspE [1]; [4]) was 0.0094 M and the Ligand efficiency (EcIspE [1]) was 0.30 kcal/mol per non-hydrogen atom.

Compound c1ccc(C[n+]2cccc3cc[nH]c32)cc1 [Compound 15] has a solubility [2] of 1000 to 5000 µM.

With C1=C(c2c[nH]c3ncccc23)CCNC1 [Compound 4] the IC50 (EcIspE [1]) was 0.0015 M and the Ligand efficiency (EcIspE [1]) was 0.32 kcal/mol per non-hydrogen atom.

In the case of Nc1ccn([C@@H]2O[C@H](CNC(=O)Cc3nc4ccccc4[nH]3)[C@@H](O)[C@H]2O)c(=O)n1 [a], the IC50 (EcIspE [3]) is listed as 2 mM.

In the case of CNC(=S)N1CC=C(c2c[nH]c3ncccc23)CC1 [Compound 12], the IC50 (EcIspE [1]; [4]) is reported as 0.00083 M and the Ligand efficiency (EcIspE [1]) is reported as 0.27 kcal/mol per non-hydrogen atom.

With purvalanol [reference compound] the “EcIspE inhibition at 100 µM” value (EcIspE [1]) was “none of the compounds showed any EcIspE inhibition”.

For Nc1n[nH]c(NCc2cccnc2)n1 [Compound 1], the IC50 (EcIspE [1]; [4]) was 0.0018 M and the Ligand efficiency (EcIspE [1]) was 0.33 kcal/mol per non-hydrogen atom.

With CC(C)Nc1nccs1 [Compound 11] the IC50 (EcIspE [1]; [4]) was 0.002 M and the Ligand efficiency (EcIspE [1]) was 0.50 kcal/mol per non-hydrogen atom.

With COc1ccc(-n2c(-c3cccnc3)nc3ccccc3c2=O)cc1 [Compound 21] the IC50 (EcIspE [1]; [4]) was 2.7e-05 M, the Ligand efficiency (EcIspE [1]) was 0.28 kcal/mol per non-hydrogen atom and the “fold weaker IC50 / loss in potency compared to the screening hit” value (“fold weaker IC50 / loss in potency” below) (EcIspE [1]) was 11 fold.

For Cc1[nH]c2ccccc2c1C(Nc1ccccn1)c1ccccc1O (centres unmarked) [Compound 7], the Ligand efficiency (EcIspE [1]) was 0.29 kcal/mol per non-hydrogen atom and the IC50 (EcIspE [1]; read-out: IC50) was 1.9e-05 M.

For Oc1csc(Nc2nccs2)n1 [Compound 3], the Ligand efficiency (EcIspE [1]) was 0.50 kcal/mol per non-hydrogen atom and the IC50 (EcIspE [1]; read-out: IC50) was 0.00016 M.

CC(C)c1cc2cccnc2n1CCC(=O)O [Compound 17] gave a solubility [2] of 1000 to 5000 µM (≈ 232 to 1160 µg/mL).

In the case of COc1ccc(-n2c(-c3ccncc3)nc3ccccc3c2=O)cc1 [Compound 23], the IC50 (EcIspE [1]; [4]) is reported as 0.00032 M and the Ligand efficiency (EcIspE [1]) is reported as 0.23 kcal/mol per non-hydrogen atom.

For O=C1Cc2c([nH]c3ccc(Br)cc23)-c2ccccc2N1 [kenpaullone, reference compound], the “EcIspE inhibition at 100 µM” value (EcIspE [1]) was “none of the compounds showed any EcIspE inhibition”.

In the case of O=c1c2ccccc2nc(-c2ccccn2)n1-c1ccccc1 [Compound 22], the IC50 (EcIspE [1]; [4]) is reported as 0.00018 M and the Ligand efficiency (EcIspE [1]) is reported as 0.26 kcal/mol per non-hydrogen atom.

For C1=C(c2c[nH]c3ncccc23)CCN(c2ncccn2)C1 [Compound 13], the IC50 (EcIspE [1]; [4]) was 0.00047 M and the Ligand efficiency (EcIspE [1]) was 0.26 kcal/mol per non-hydrogen atom.

For CNc1ncc(Br)nc1N [Compound 2], the IC50 (EcIspE [1]; [4]) was 0.00059 M and the Ligand efficiency (EcIspE [1]) was 0.53 kcal/mol per non-hydrogen atom.

With Cc1[nH]c2ccccc2c1C(Nc1ccccn1)c1cccc(Cl)c1 (centres unmarked) [Compound 18] the Ligand efficiency (EcIspE [1]) was 0.21 kcal/mol per non-hydrogen atom.

For Cc1[nH]c2ccccc2c1C(Nc1cccc(Cl)c1)c1ccccn1 (centres unmarked) [Compound 20], the IC50 (EcIspE [1]; [4]) was 0.0025 M, the Ligand efficiency (EcIspE [1]) was 0.18 kcal/mol per non-hydrogen atom and the “fold weaker IC50 / loss in potency” value (EcIspE [1]) was 130 fold.

In the case of Oc1ccccc1CNc1nccs1 [Compound 10], the IC50 (EcIspE [1]; [4]) is reported as 0.0066 M and the Ligand efficiency (EcIspE [1]) is reported as 0.27 kcal/mol per non-hydrogen atom.

With Nc1cc(-c2ccco2)[nH]n1 [Compound 6] the IC50 (EcIspE [1]; [4]) was 0.0035 M and the Ligand efficiency (EcIspE [1]) was 0.28 kcal/mol per non-hydrogen atom.

In the case of Nc1nc(N)c2[nH]c(=O)[nH]c2n1 [Compound 5], the IC50 (EcIspE [1]; [4]) is reported as 0.0023 M and the Ligand efficiency (EcIspE [1]) is reported as 0.37 kcal/mol per non-hydrogen atom.

For CN1CC=C(c2c(C3CC3)[nH]c3ncccc23)CC1 [Compound 14], the IC50 (EcIspE [1]; [4]) was 0.0087 M, the Ligand efficiency (EcIspE [1]) was 0.19 kcal/mol per non-hydrogen atom and the “fold weaker IC50 / loss in potency” value (EcIspE [1]) was 5.8 fold.

With O=c1c2ccccc2nc(-c2cccnc2)n1-c1ccc(Br)cn1 [Compound 8] the IC50 (EcIspE [1]) was 2.5e-06 M and the Ligand efficiency (EcIspE [1]) was 0.35 kcal/mol per non-hydrogen atom.

For Cc1[nH]c2ccccc2c1C(Nc1ccccn1)c1ccccc1Cl (centres unmarked) [Compound 19], the IC50 (EcIspE [1]; [4]) was 0.0024 M and the Ligand efficiency (EcIspE [1]) was 0.18 kcal/mol per non-hydrogen atom.

For Nc1ccn([C@@H]2O[C@H](CNC(=O)CCc3nc4ccccc4[nH]3)[C@@H](O)[C@H]2O)c(=O)n1 [b], the IC50 (EcIspE [3]) is given as 2 mM.

In the case of CN[C@@H]1C[C@H]2O[C@@](C)([C@@H]1OC)n1c3ccccc3c3c4c(c5c6ccccc6n2c5c31)C(=O)NC4 [staurosporine, reference compound], the “EcIspE inhibition at 100 µM” value (EcIspE [1]) is reported as “none of the compounds showed any EcIspE inhibition”.

With CC(C)c1cc2cccnc2n1CCCN [Compound 16] the solubility [2] was 1000 to 5000 µM (≈ 217 to 1090 µg/mL).
